# Laboratory results as given in patent US20130309306A1, “INTRAPULMONARY BENZODIAZEPINE FOR THE TREATMENT AND PREVENTION OF SEIZURES” (priority 2010, published 2013).
# Tested on: PTZ-induced seizures
# Test: PTZ seizure threshold test, tonic extension endpoint, Example 2
# Type: in vivo, mice
# Experimental: NIH Swiss mice (22-30 g) were kept in a vivarium under controlled environmental conditions (temperature, 22-26° C.; humidity, 40-50%) with an artificial 12-h light/dark cycle. Wood chips were used in all cages. Experiments were performed during the light phase of the light/dark cycle after a minimum 30-min period of acclimation to the experimental room. The animal facilities were fully accredited by the Association for Assessment and Accreditation of Laboratory Animal Care. All studies were performed under protocols approved by the Animal Care and Use Committee of the University of California, Davis in strict compliance with the Guide for the Care and Use of Laboratory Animals of the National Research Council (National Academy Press, Washington, D.C.; on the internet at nap.edu/readingroom/books/labrats/).
# Midazolam was administered as a commercially available injectable solution (midazolam hydrochloride, 10 mg/10 ml; APP Pharmaceuticals, Schaumburg, Ill., USA) containing sodium chloride (0.8% w/v), disodium edetate (0.01% w/v), benzyl alcohol as preservative (1% v/v) with HCl to adjust the pH 3-3.6. Pentylenetetrazol (PTZ) (Sigma-Aldrich, St. Louis, Mo., USA) was dissolved in 0.9% w/v saline. The remaining test substances were all obtained from Tocris Bioscience (Ellisville, Mo., USA) except for clonazepam, which was from Sigma-Aldrich. Finasteride was dissolved in 25% hydroxypropyl-β-cyclodextrin (Trappsol; Cyclodextrin Technologies Development, High Springs, Fla., U.S.A.). Metyrapone was dissolved in double distilled water and PK 11195 and clonazepam were suspended in 1% Tween 80 and adjusted to volume with saline.
# PTZ seizure threshold was determined according to a protocol used previously in our laboratory (Dhir et al., 2011). Intravenous PTZ elicits a sequence of seizure signs beginning with twitch and progressing to clonus and tonic limb extension. In the present study, tonic extension was used as the endpoint. […] It is noteworthy that this is the endpoint originally used in studies characterizing the actions of midazolam against PTZ seizures in mice (Pieri, 1983 Br J Clin Pharmacol 16 Suppl 1: 17S-27S). A 27 gauge-¾ inch “butterfly” needle was inserted into the lateral tail vein and the needle was secured with a narrow piece of adhesive tape. The animal was placed inside a 2 L glass beaker with free aeration from the top and allowed to move freely. The needle was connected by polyethylene tubing to a Beckton, Dickinson 1 ml syringe mounted on an infusion pump (Model ‘11’ plus syringe pump; Harvard Apparatus, Holliston, Mass.). PTZ solution (10 mg/ml) was infused at a constant rate of 0.5 ml/min. The infusion was stopped at 3 min or at the onset of tonic extension, whichever occurred first. The threshold value (mg/kg) for tonic extension was determined according to the formula: (infusion duration [sec]×infusion rate [ml/min]×PTZ concentration [mg/ml]×1000)/(60 [sec]×weight of mouse [g]).
# In an initial experiment, the dose-response relationship for midazolam elevation of seizure threshold was assessed at doses of 100 μg/kg to 5 mg/kg (15 min pretreatment time). […] PK 11195 was used at a dose (15 mg/kg) as in the study of Ugale et al. (2004 Brain Res. 2004 Oct. 8; 1023(1):102-11). Clonazepam was administered at a dose of 100 μg/kg (Akula et al., 2009). The volume of all intraperitoneal injections was 10 ml/kg.
# Results are expressed as mean±S.E.M.; the significance of the difference in the responses of treatment groups with respect to control is based on one-way analysis of variance (ANOVA) followed by specific post-hoc comparisons using Tukey's test. Differences are considered statistically significant when the probability of type I error was less than 0.05.
compound,measurement,setting,value
"Cc1ncc2n1-c1ccc(Cl)cc1C(c1ccccc1F)=NC2 [Midazolam, midazolam]",PTZ threshold for tonic extension vs vehicle,"intraperitoneal 500 to 5000 μg/kg (significant), 15 min before PTZ infusion (FIG. 7)",dose-dependent elevation in threshold
same,increase in threshold for tonic extension (vs vehicle only control),"midazolam 500 μg/kg i.p., 15 min before i.v. PTZ infusion, in the absence of finasteride",2.3 fold
same,PTZ seizure threshold vs vehicle,"midazolam 100 or 200 μg/kg intratracheal, 10 min before PTZ, in the absence of flumazenil (FIG. 12)",significant increase in the seizure threshold
